Measured values as given in patent US20180028690A1, “INDOCYANINE GREEN FORMULATIONS AND METHODS FOR IMAGING OF THE URINARY PATHWAYS” (Yissum Reseach Development Company of the Herbrew …, priority 2015, published 2018).
Where “and” joins values, the source holds several entries; their conditions need not be identical. Equal entries are not always repeated.

Assays:
[1] = Whole body NIR imaging (IVIS Kinetic) after intravenous injection; assay type: in vivo, Female FVB mice
Protocol: Mice were shaved under isoflurane (1-2%, v/v) anesthesia and underwent baseline scans using an IVIS Kinetic® in vivo imaging system (Caliper Life Sciences, Hopkinton, Mass., USA). Two hundred μl of 8 mg/kg Phospholipon® 50 ICG liposomes or the free compound in 2 mM sucrose buffer (phosphate buffer pH 7, with 9.3% w/w sucrose) were injected into the tail vein and the mice were repetitively scanned over a time period of up to 120 min.
Analysis of in vivo ICG pharmacokinetics (PK), including region of interest (ROI) placement (Living Image; PerkinElmer, Waltham, Mass., USA; (Schneider et al., 2012)) and calculation of the area under the concentration-time curve (AUC) from the time of injection to the time of the last measurement (Phoenix WinNonlin; Certara; St. Louis, Mo., USA), was conducted as previously described (Portnoy et al., 2012). Partial areas were calculated for the AUC between the time of ICG injection (0 min) and 60 or 120 min after injection (AUC0-60 min and AUC0-120 mm, respectively). Data are presented as means±SD. The non-parametric Mann-Whitney or Kruskal-Wallis tests, as appropriate, were used to determine the statistical significance of difference (p<0.05) between experimental groups (InStat; GraphPad, La Jolla, Calif., USA).

[2] = Imaging of surgically exposed kidneys and ureters after midline laparotomy; assay type: in vivo, Female FVB mice; details: P<0.01
Protocol: An additional cohort of animals was used for further studies of the accumulation of liposomal ICG in the urinary system. Liposomal or free ICG was injected into the tail vein, and 3 min later, mice were treated with high dose pentobarbital administered intraperitoneally. Overall time of active circulation after the ICG injection was about 10 min. Thereafter, mice were subjected to midline laparotomy with full exposure of the retroperitoneum. The ureters were identified in their origin from the kidneys, and distally clipped or loosely tied for identification. The mice were also hysterectomyzed to ease the urinary bladder identification. Subsequently, the animals were scanned by the Typhoon FLA 9500 biomolecular imager. Each experiment was repeated at least three times.

[3] = literature (Bax 1980; Cherrick 1960); cited from earlier work
[4] = Stability of ICG absorption at light and at dark over time; assay type: physicochemical; details: aqueous solution or adsorbed to liposomes
Protocol: The red shift is accompanied with quenching of fluorescence, i.e., the larger the red shift the lower the fluorescence intensity. Because the fluorescence intensity of ICG-liposomes was greater than that of unbound ICG molecules (aqueous solution), the quantum yield ratio between the two states in which ICG is present was determined, for a concentration of 1.28×10^−3 mM. ICG is poorly stable in aqueous solutions due to degradation, and therefore, in order to evaluate the stability of the ICG-adsorbed liposomes, the absorption of this fluorescent probe, when dissolved in an aqueous solution or adsorbed to the liposomes, was measured at light and at dark over time.

[5] = Fluorescence spectra and relative quantum yield of ICG-adsorbed liposomes vs ICG in aqueous solution; assay type: physicochemical
Protocol: The fluorescence spectra of the ICG-adsorbed liposomes prepared were evaluated in comparison to those of ICG in aqueous solution.
The relative quantum yield was calculated according to the following equation (Fery-Forgues and Lavabre, 1999):
where φ is the quantum yield, F is the area under the emission peak (expressed in number of photons), A is absorbance at the excitation wavelength, and n is the refractive index of the solvents. The subscript x denotes the respective values of the sample (liposome-ICG), and s denotes standard (free ICG in buffer).

[6] = Ureter imaging with ICG-HPβCD inclusion complex vs free ICG (Typhoon imager); assay type: in vivo, female FVB mice; details: 8 mg/kg ICG, 10 min post injection
Protocol: 60 mg of ICG (Acros) was solubilized in 12.5 ml of DDW. 2 ml of ICG solution were added to 10 ml of phosphate buffer (pH 7, 2 mM, and sucrose 9.3% w/w). 18.5 mg of HPβCD (Acros) were added to ICG buffered solution and mixed for 10 h at 4° C. […] Mice were sacrificed 10 min post injection and imaged by Typhoon imager (General Electric).

urinary bladder/feet AUC0-60 min ratio of emission intensity ([1]; 8 mg/kg ICG i.v., feet-normalized AUC, 0-60 min): 2.3±0.5
urinary bladder/feet AUC0-120 min ratio of emission intensity ([1]; 8 mg/kg ICG i.v., feet-normalized AUC, 0-120 min): 2.3±0.4
emission intensity AUC of the urinary bladder relative to that of the feet ([1]; control mice, 8 mg/kg i.v.): 2.3 fold
ICG emission peak in water, shift ([5]; concentrations above 6.4×10^−3 mM): up to 814 nm
ICG emission peak in water ([5]; concentrations less than 6.4×10^−3 mM): 805 nm
renal excretion [6]: negligibly excreted in the urine
SMILES: CC1(C)C(/C=C/C=C/C=C/C=C2\N(CCCCS(=O)(=O)O)c3ccc4ccccc4c3C2(C)C)=[N+](CCCCS(=O)(=O)[O-])c2ccc3ccccc3c21 [free ICG, indocyanine green]
ureteral emission normalized to renal emission (ureters/kidneys ratio) [2]: 0.56±0.10 and 0.5
half life in plasma [3]: in the minutes range
renal elimination after systemic administration [3]: negligible
absorption over time at light and at dark (stability) [4]: decreases over time both in light and in dark
labelling of ureters [6]: did not
